The values below come from ChEMBL document CHEMBL4699620, “Peptide Inhibitors of the α-Cobratoxin-Nicotinic Acetylcholine Receptor Interaction” (J Med Chem, 2020).

Data set [1] concerns the target T1, Alpha-cobratoxin (Naja kaouthia, UniProt P01391).
T1 sequence (P01391 whole entry): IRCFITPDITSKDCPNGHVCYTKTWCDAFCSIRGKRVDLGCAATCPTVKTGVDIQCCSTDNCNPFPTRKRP
In words: Displacement of TAMRA-HAKTYMWDGWYMPTSH-NH2 from Naja kaouthia alpha-cobratoxin by fluorescence polarization assay. Background: Polarisation of emitted light reports the rotation of a fluorescent probe.

A short description of data set [2]: Stability of compound in PBS buffer measured after 1 day at room temperature by HPLC analysis. Type of data set: physicochemical. To be noted: 24 h.
Data set [3] can be described thus: Stability of compound in PBS buffer measured after 1 day at 37 degC by HPLC analysis. Format: physicochemical. To be noted: 24 h.
A short description of data set [4]: Stability of compound in PBS buffer assessed as compound degradation measured after 9 days at room temperature by HPLC analysis. Format: physicochemical. To be noted: time 9 day, read-out: Drug degradation.
Data set [5] can be described thus: Stability of compound in PBS buffer assessed as compound degradation measured after 2 days at 37 degC by HPLC analysis. Type of data set: physicochemical. To be noted: time 2 day, read-out: Drug degradation.

Where a SMILES comes first, the peptide text is derived from it. [ ]: non-standard residue; d: D form. PEG6 = NCCOCCOCCOCCOCCOCCOCCC(=O)O

By IC50 is commonly meant the concentration at which inhibition is half-maximal. By Ki is commonly meant a measure of affinity in units of concentration, obtained from inhibition or displacement. Regarding Ac-HAKTYMWDGWYMPTSH-NH2, in data set [1], the half-inhibitory concentration (IC50) came out at 29 µM and the inhibition constant (Ki) was determined as 2 µM. The Stabilty result in data set [2] is listed as “Stable”. For the same compound, in data set [3], the Stabilty result is recorded as “Stable”.
For `CSCC[C@H](NC(=O)[C@H](Cc1ccc(O)cc1)NC(=O)[C@H](Cc1c[nH]c2ccccc12)NC(=O)CNC(=O)[C@H](CC(=O)O)NC(=O)[C@H](Cc1c[nH]c2ccccc12)NC(=O)[C@H](CCSC)NC(=O)[C@H](Cc1ccc(O)cc1)NC(=O)CCOCCOCCOCCOCCOCCOCCN)C(N)=O` (H-[PEG6]YMWDGWYM-NH2), in data set [1], the affinity corresponds to a Ki of 26 µM. The degraded at 216 h in data set [4] stood at 7%. In addition, the degraded at 48 h in data set [5] worked out at 7%. Also, the Stabilty result in data set [2] and in data set [3] was “Stable” each time.
